{"source": "ChEMBL document CHEMBL1201862", "about": "“PubChem BioAssay data set” (2004)", "key": {"[1]": {"test": "inhibitors of firefly luciferase expression or activity, dose response, H4 neuroglioma cells, luminescence (AID 1990)", "assay_type": "functional, cell-based"}, "[2]": {"test_system": "HeLa", "test": "Cytotoxicity counterscreen assay for transcriptional activators of heat shock protein 70 (Hsp70). [Related pubchem assays: 1203, 1252 ]", "assay_type": "functional", "settings": "Homo sapiens"}, "[3]": {"test_system": "BJ", "test": "cytotoxicity toward BJ-TERT fibroblasts, dose response, cell-based, RAS-independent, luminescence (AID 1933)", "assay_type": "functional", "settings": "Homo sapiens"}, "[4]": {"test": "A Cell Based Secondary Assay To Explore Cytotoxicity of Compounds that Sensitize Mycobacterium Tuberculosis to Beta-Lactam Antibiotics.", "assay_type": "functional"}, "[5]": {"test": "Luminescence Cell-Based Dose Response HTS to Identify Inhibitors of 5'UTR Stem-Loop Driven Prion Protein mRNA Translation in H4 Neuroglioblastoma Cells. [Related pubchem assays: 1827 (Project Summary), 1813 (Primary HTS)]", "assay_type": "functional"}, "[6]": {"test": "inhibitors of SNCA 5'UTR-driven reporter translation, confirmation, H4 neuroglioma cells, luminescence (AID 1988)", "assay_type": "functional, cell-based"}, "[7]": {"test_system": "BJ", "test": "cells", "assay_type": "functional, cell-based", "settings": "Homo sapiens"}, "[8]": {"test_system": "BJ", "test": "cytotoxicity toward BJ-TERT-LT-ST fibroblasts, dose response, cell-based, RAS-independent, luminescence (AID 1935);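 further: BJ fibroblasts immortalized with TERT plus LT and ST oncogenes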", "assay_type": "functional", "settings": "Homo sapiens"}, "[9]": {"test": "cytotoxicity toward DRD oncogenic fibroblasts, dose response, cell-based, non-viral oncogenic, luminescence (AID 1934)", "assay_type": "functional", "settings": "Homo sapiens"}, "[10]": {"test_system": "Staphylococcus aureus", "test": "Inhibitors of Bacterial Quorum Sensing Structure Activity Relationship (SAR) Analysis: Dose Response Assay. [Related pubchem assays: 700, 527 ]", "assay_type": "functional, organism-based"}, "[11]": {"test": "Counterscreen for IDE inhibitors: Luminescence-based cell-based high throughput dose response assay to identify compounds that are cytotoxic to HEK cells. [Related pubchem assays: 434962 (Primary screen (IDE inhibitors in singlicate)), 449730 (Counterscreen (Cytotoxicity in triplicate)), 435028 (Confirmation (IDE inhibitors in triplicate)) …", "assay_type": "functional", "settings": "HEK293"}, "[12]": {"molecular_target": "Insulin-degrading enzyme (Homo sapiens, UniProt P14735)", "sequence (P14735 whole entry)": "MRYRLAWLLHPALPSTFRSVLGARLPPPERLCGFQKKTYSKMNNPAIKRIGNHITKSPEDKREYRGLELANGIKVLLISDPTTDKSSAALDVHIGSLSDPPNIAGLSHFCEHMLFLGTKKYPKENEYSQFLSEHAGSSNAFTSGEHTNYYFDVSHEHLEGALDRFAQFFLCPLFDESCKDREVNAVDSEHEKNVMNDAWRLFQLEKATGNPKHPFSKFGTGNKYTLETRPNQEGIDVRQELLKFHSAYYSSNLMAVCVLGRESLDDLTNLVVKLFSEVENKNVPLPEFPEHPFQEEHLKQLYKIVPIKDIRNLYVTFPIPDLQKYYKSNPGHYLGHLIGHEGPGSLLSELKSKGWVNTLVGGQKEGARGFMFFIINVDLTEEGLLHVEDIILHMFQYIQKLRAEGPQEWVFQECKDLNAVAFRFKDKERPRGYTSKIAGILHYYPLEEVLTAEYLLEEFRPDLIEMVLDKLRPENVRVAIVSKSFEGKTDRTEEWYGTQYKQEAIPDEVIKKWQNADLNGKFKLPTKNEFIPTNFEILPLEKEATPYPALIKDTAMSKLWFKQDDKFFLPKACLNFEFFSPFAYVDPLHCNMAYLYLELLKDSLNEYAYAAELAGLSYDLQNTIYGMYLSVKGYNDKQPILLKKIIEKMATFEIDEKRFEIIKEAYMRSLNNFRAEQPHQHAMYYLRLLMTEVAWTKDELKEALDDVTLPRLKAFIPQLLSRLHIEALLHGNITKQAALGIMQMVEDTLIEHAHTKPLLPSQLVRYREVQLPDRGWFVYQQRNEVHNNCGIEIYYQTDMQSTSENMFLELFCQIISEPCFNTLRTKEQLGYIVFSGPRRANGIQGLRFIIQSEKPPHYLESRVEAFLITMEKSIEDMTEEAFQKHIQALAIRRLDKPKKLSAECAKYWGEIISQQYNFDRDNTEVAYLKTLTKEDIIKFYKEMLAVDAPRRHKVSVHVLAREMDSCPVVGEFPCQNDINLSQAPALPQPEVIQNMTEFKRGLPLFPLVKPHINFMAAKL", "test": "Dose Response: Fluorescence polarization-based cell-based high throughput dose response assay for inhibitors of insulin-degrading enzyme (IDE). [Related pubchem assays: 434962 (Primary screen (IDE inhibitors in singlicate)), 449730 (Counterscreen (Cytotoxicity in triplicate)), 435028 (Confirmation (IDE inhibitors in triplicate)), 434984 (Summary …", "assay_type": "functional"}, "[13]": {"molecular_target": "Luciferin 4-monooxygenase (Photinus pyralis, UniProt P08659)", "sequence (P08659 whole entry)": "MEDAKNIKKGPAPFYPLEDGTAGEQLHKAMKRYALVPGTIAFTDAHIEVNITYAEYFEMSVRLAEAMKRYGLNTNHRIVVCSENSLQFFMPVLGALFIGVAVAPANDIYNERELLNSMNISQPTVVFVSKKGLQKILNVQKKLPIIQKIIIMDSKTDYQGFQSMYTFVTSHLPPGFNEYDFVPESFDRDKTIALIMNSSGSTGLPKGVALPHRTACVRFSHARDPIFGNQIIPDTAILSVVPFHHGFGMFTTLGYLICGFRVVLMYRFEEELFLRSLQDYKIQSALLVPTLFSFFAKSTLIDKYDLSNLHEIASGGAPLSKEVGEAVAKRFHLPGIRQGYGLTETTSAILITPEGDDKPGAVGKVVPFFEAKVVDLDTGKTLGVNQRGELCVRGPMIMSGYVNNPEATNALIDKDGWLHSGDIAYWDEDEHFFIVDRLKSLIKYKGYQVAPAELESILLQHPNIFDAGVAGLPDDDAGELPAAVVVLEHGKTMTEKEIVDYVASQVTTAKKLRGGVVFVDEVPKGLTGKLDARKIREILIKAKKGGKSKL", "test": "Counter Screen for Luciferase-based Assay Positives. [Related pubchem assays: 620, 618, 411 ]"}, "[14]": {"test_system": "HT-1080", "test": "cytotoxicity in HT1080 fibrosarcoma cells, cell-based, fluorescence readout (AID 620)", "assay_type": "functional", "settings": "Homo sapiens"}, "[15]": {"test": "HEp-2 cell cytotoxicity, dose response, cytotoxicity control for RSV inhibitor project, HTS (AID 2410)", "assay_type": "functional", "settings": "human respiratory syncytial virus"}, "[16]": {"test": "cells"}, "[17]": {"molecular_target": "Glyceraldehyde-3-phosphate dehydrogenase (Homo sapiens, UniProt P04406)", "sequence (P04406 whole entry)": "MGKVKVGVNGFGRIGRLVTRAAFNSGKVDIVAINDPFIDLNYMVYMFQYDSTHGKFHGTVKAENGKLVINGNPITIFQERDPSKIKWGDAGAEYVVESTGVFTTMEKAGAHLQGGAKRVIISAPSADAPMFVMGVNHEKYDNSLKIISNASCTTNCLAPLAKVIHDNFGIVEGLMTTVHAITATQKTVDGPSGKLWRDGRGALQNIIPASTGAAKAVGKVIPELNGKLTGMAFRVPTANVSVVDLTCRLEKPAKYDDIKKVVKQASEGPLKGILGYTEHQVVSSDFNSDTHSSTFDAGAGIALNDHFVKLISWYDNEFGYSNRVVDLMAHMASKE"}, "[18]": {"molecular_target": "T1, Bcl-2-related protein A1 (Mus musculus, UniProt Q07440)", "T1 sequence (Q07440 whole entry)": "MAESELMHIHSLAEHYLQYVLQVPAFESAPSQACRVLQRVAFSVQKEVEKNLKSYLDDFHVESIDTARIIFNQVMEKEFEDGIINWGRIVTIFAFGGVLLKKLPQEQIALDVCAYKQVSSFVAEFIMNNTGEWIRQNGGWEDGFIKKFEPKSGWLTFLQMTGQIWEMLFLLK", "test": "Bfl-1 inhibitors blocking BH3 peptide binding, confirmation, biochemical, TR-FRET, mouse Bfl-1 (AID 621);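 further: TR-FRET binding of GST-Bfl-1 to FITC-labelled Bid peptide via terbium antibody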"}, "[19]": {"molecular_target": "T1, Bcl-2-related protein A1", "test": "Bfl-1 binding inhibitors, SAR follow-up, biochemical, fluorescence polarization (AID 1070)"}, "[20]": {"test": "luciferase reporter signal reduction – luminescence, H4-C neuroglioblastoma cells, dose response (AID 2458);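 further: H4 neuroglioblastoma cells stably carrying a luciferase reporter gene fusion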", "assay_type": "functional, cell-based"}, "[21]": {"test": "cells", "assay_type": "functional, cell-based"}, "[22]": {"test": "inhibitors of SNCA 5'UTR-driven translation, confirmation, luminescence, H4 neuroglioblastoma cells, dose confirmation (AID 2454);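 further: H4 neuroglioblastoma cells carrying an alpha-synuclein 5'UTR luciferase reporter; potency for inhibition of the luciferase signal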", "assay_type": "functional, cell-based"}, "[23]": {"test_system": "INS1", "test": "beta cell apoptosis inhibitors, cytokine rescue, dose response, luminescence, retest (AID 449756);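 further: cell death triggered by IL-1 beta plus TNF-alpha plus IFN-gamma mixture; protective hits raise ATP signal compared with cytokine alone wells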", "assay_type": "functional, cell-based", "settings": "Rattus norvegicus"}, "[24]": {"molecular_target": "Albumin (Bos taurus, UniProt P02769)", "sequence (P02769 whole entry)": "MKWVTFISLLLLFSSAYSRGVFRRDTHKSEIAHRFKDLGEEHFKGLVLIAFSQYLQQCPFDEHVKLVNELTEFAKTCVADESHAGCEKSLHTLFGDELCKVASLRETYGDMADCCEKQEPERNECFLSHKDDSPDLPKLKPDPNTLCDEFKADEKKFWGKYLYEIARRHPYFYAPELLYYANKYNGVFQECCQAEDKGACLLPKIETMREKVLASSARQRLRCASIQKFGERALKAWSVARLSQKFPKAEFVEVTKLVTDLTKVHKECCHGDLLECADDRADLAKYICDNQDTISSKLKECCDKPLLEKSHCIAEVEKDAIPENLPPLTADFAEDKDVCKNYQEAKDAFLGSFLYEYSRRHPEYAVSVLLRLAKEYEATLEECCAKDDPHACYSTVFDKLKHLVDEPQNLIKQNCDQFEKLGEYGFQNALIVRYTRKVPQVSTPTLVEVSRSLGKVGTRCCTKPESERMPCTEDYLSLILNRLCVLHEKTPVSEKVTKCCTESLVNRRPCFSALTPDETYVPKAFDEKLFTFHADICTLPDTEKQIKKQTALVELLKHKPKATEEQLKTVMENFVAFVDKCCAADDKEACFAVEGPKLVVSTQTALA", "test": "Counterscreen for inhibitors of T-cell receptor (TCR)-CD3 interaction: Fluorescence-based biochemical high throughput dose response assay to identify inhibitors of T-cell receptor (TCR)-CD3 interaction using a TAMRA-labeled BSA probe.", "assay_type": "functional"}, "[25]": {"test_system": "HeLa", "test": "HeLa cell cytotoxicity, dose response, cytotoxicity control, 24 h, cherry-picked samples (AID 504726);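 further: potency for cytotoxicity as loss of luminescence signal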", "assay_type": "functional, cell-based", "settings": "Homo sapiens"}, "[26]": {"molecular_target": "Eukaryotic translation initiation factor 4H (Homo sapiens, UniProt Q15056)", "test": "human eIF4H binding inhibitors, primary screen, translation initiation inhibitor project, biochemical, uHTS, fluorescence polarization (AID 2012)"}, "[27]": {"molecular_target": "Polyadenylate-binding protein 1 (Homo sapiens, UniProt P11940)", "sequence (P11940 whole entry)": "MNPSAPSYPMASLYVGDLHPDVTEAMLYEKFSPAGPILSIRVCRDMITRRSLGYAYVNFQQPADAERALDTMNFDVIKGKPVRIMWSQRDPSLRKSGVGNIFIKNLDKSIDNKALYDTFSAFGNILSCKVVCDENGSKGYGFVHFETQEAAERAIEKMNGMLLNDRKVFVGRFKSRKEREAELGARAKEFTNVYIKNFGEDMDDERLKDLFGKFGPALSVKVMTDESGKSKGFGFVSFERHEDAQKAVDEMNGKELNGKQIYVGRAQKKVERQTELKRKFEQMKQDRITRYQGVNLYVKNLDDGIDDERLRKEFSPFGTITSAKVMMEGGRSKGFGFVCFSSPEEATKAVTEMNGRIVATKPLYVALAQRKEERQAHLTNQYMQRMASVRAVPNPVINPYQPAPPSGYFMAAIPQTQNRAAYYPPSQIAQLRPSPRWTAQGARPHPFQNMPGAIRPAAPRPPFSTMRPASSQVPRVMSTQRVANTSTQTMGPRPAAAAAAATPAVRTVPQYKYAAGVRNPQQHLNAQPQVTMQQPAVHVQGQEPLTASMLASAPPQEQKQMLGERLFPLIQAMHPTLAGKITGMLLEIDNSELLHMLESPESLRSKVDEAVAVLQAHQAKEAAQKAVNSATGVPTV", "test": "PABP poly(A) RNA binding inhibitors, primary screen, biochemical, fluorescence polarization, uHTS (AID 2014)"}}, "note": "The source made the active and inactive calls.", "data": [{"molecule": "C=CCSc1nccc(-c2nn(-c3ccc(C)cc3)ccc2=O)n1", "values": [{"measurement": "EC50", "setting": "[1]", "value": "9.46 µM (active)"}, {"measurement": "CC50", "setting": "[2]", "value": "> 33 µM (not active)"}, {"measurement": "EC50", "setting": "[3]", "value": "15.6 µM (active)"}, {"measurement": "CC50", "setting": "[4]", "value": "16.7 µM (active)"}, {"measurement": "EC50", "setting": "[5]", "value": "> 120 µM (not active)"}, {"measurement": "EC50", "setting": "[6]", "value": "7.52 µM (active)"}, {"measurement": "EC50", "setting": "[7]", "value": "111 µM (active)"}, {"measurement": "EC50", "setting": "[8]", "value": "90.2 µM (active)"}, {"measurement": "EC50", "setting": "[9]", "value": "3.51 µM (inconclusive)"}]}, {"molecule": "COc1ccc(NC(=O)C(c2cc3c(cc2[N+](=O)[O-])OCO3)N2CC(C)CC(C)C2)cc1", "note": "(stereo not given)", "values": [{"measurement": "IC50", "setting": "[10]", "value": "1.31 µM (active)"}]}, {"molecule": "CC(=O)N(C(C)=O)c1nc(-c2ccccc2)cn1/N=C/c1ccccc1", "values": [{"measurement": "IC50", "setting": "[11]", "value": "20 µM (not active)"}, {"measurement": "IC50", "setting": "[12]", "value": "> 55.9 µM (not active)"}]}, {"molecule": "O=C(Nc1ccc2c(c1)OCCO2)c1cncc(Br)c1", "values": [{"measurement": "EC50", "setting": "[13]", "value": "12.1 µM (active)"}, {"measurement": "EC50", "setting": "[14]", "value": "> 50 µM (not active)"}]}, {"molecule": "CCCOc1c(Br)cc(C(=O)NCC)cc1OC", "values": [{"measurement": "CC50", "setting": "[2]", "value": "> 99 µM (not active)"}]}, {"molecule": "COCc1cc(C)nc(SCC(=O)Nc2ccccc2N2CCOCC2)c1C#N", "values": [{"measurement": "CC50", "setting": "[15]", "value": "> 50 µM (active)"}, {"measurement": "IC50", "setting": "[16]", "value": "9.24 µM (active)"}]}, {"molecule": "O=C1C(Cl)=C(N2CCN(Cc3ccc4c(c3)OCO4)CC2)C(=O)N1c1ccc(Cl)c(Cl)c1", "values": [{"measurement": "IC50", "setting": "[17]", "value": "> 100 µM (not active)"}, {"measurement": "IC50", "setting": "[18]", "value": "2.14 µM (active)"}, {"measurement": "IC50", "setting": "[19]", "value": "4.07 µM (active)"}]}, {"molecule": "C/C(=N\\NC(=O)c1c(C)nc2ccccn12)c1ccc(O)cc1O", "values": [{"measurement": "EC50", "setting": "[20]", "value": "0.739 µM (active)"}, {"measurement": "EC50", "setting": "[21]", "value": "0.901 µM (active)"}, {"measurement": "EC50", "setting": "[5]", "value": "< 0.1 µM (active)"}, {"measurement": "EC50", "setting": "[6]", "value": "< 0.1 µM (active)"}, {"measurement": "EC50", "setting": "[22]", "value": "> 12 µM (inconclusive)"}, {"measurement": "AC50", "setting": "[23]", "value": "0.586 µM (active)"}, {"measurement": "IC50", "setting": "[24]", "value": "> 94.1 µM (inactive)"}]}, {"molecule": "Oc1nc(S)nc2c1C(c1ccc(Br)cc1)c1c(O)nc(S)nc1O2", "values": [{"measurement": "AC50", "setting": "[25]", "value": "> 350 µM (inactive)"}]}, {"molecule": "CC1=C(C(=O)OC(C)C)C(c2ccco2)NC(=O)N1", "note": "(stereo not given)", "values": [{"measurement": "IC50", "setting": "[26]", "value": "34.7 µM (active)"}, {"measurement": "IC50", "setting": "[27]", "value": "42.8 µM (active)"}]}]}
